Laboratory results as given in the Kinase Knowledgebase extract (Sharma et al. 2016).

Target: CDK2 (human) (UniProt P24941)
Test: Enzyme Assay

Structure (SMILES) | IC50 [µM]
Cc1cc(N2CCOCC2)ccc1NC(=O)c1ccc(C(=O)Nc2ccc(-n3cncn3)c(F)c2)s1 | ≤ 1
O=C(Nc1ccccc1)c1ccc(C(=O)Nc2ccc(-n3cncn3)cc2)s1 | ≥ 40
COc1ccc(NC(=O)c2ccc(C(=O)Nc3ccc(N4CCOCC4)nc3)s2)c(C)c1 | ≥ 40
COc1ccc(C(=O)Nc2ccc(C(=O)N3CCC(Oc4cnccn4)CC3)o2)cc1 | ≥ 40
COc1ccc(NC(=O)c2ccc(C(=O)Nc3ccc4c(c3)OCO4)s2)c(C)c1 | ≥ 40
CN(C)CCNC(=O)c1ccc(C(=O)Nc2ccc(-n3cncn3)cc2)s1 | ≥ 40
COc1ccc(C(=O)Nc2ccc(C(=O)N3CCC(c4ccncc4)C3)s2)c(C)c1 (stereo not given) | ≥ 40
COc1ccccc1NC(=O)c1ccc(C(=O)Nc2ccc(-n3cncn3)c(F)c2)s1 | ≥ 40
COc1ccc(NC(=O)c2ccc(C(=O)Nc3ccc4scnc4c3)s2)c(C)c1 | ≥ 40
Cc1cc(OCCO)ccc1NC(=O)c1ccc(C(=O)Nc2ccc(-n3cncn3)cc2)s1 | ≤ 1
Cc1cc(NC(=O)c2ccc(C(=O)Nc3ccc(-n4cncn4)cc3)s2)ccc1F | ≥ 40
O=C(NCc1cccnc1)c1ccc(C(=O)Nc2ccc(-n3cncn3)cc2)s1 | ≥ 40
O=C(NCCN1CCNC1=O)c1ccc(C(=O)Nc2ccc(-n3cncn3)cc2)s1 | ≥ 40
COc1ccc(NC(=O)c2ccc(C(=O)Nc3ccc(Cn4ccnc4)cc3)s2)c(C)c1 | ≥ 40
Cc1cc(OCCN2CCN(C)CC2)ccc1NC(=O)c1ccc(C(=O)Nc2ccc(-n3cncn3)cc2)s1 | ≤ 1
CNCc1ccc(NC(=O)c2ccc(C(=O)Nc3ccc(-n4cncn4)cc3)s2)c(C)c1 | 1 to 40
CCCCN(C)C(=O)c1ccc(C(=O)Nc2ccc(-n3cncn3)cc2)s1 | ≥ 40
O=C(NCCc1cccnc1)c1ccc(C(=O)Nc2ccc(-n3cncn3)cc2)s1 | 1 to 40
O=C(Nc1ccc(-n2cncn2)cc1)c1ccc(C(=O)N2CCc3ccccc3C2)s1 | 1 to 40
Cn1c(NC(=O)c2ccc(C(=O)Nc3ccc(-n4cncn4)cc3)s2)nc2ccccc21 | ≥ 40
O=C(Nc1ccc(-n2cncn2)cc1)c1ccc(C(=O)Nc2nc3c(s2)CCCC3)s1 | 1 to 40
O=C(NCc1ccccc1)c1ccc(C(=O)Nc2ccc(-n3cncn3)cc2)s1 | 1 to 40
Cc1ccsc1CNC(=O)c1ccc(C(=O)Nc2ccc(-n3cncn3)cc2)s1 | 1 to 40
O=C(Nc1ccc(-n2cncn2)c(F)c1)c1ccc(C(=O)NC2CCCCC2)o1 | ≤ 1
COc1ccc(NC(=O)c2ccc(C(=O)Nc3ccc4c(cnn4C)c3)s2)c(C)c1 | ≥ 40

Structure (SMILES) | IC50 [µM]
O=C(Nc1ccc(-n2cncn2)cc1)c1ccc(C(=O)NC2CCNCC2)s1 | ≥ 40
Cc1cc(NC(=O)c2ccc(C(=O)Nc3ccc(-n4cncn4)cc3)s2)n(C)n1 | 1 to 40
Cc1cc(CN(C)C)ccc1NC(=O)c1ccc(C(=O)Nc2ccc(-n3cncn3)cc2)s1 | 1 to 40
COc1ccc(C(=O)Nc2ccc(C(=O)Nc3ccc(-n4cncn4)cc3)s2)c(C)c1 | ≤ 1
COc1ccc(NC(=O)c2ccc(C(=O)Nc3ccc(-n4cncn4)cc3F)s2)c(C)c1 | ≥ 40
O=C(NCCN1CCCCC1)c1ccc(C(=O)Nc2ccc(-n3cncn3)cc2)s1 | ≥ 40
COc1ccc(NC(=O)c2ccc(C(=O)Nc3ccc(OCCN(C)C)cc3)s2)c(C)c1 | ≥ 40
COc1ccc(NC(=O)c2ccc(C(=O)Nc3ccc(-c4nnn[nH]4)cc3)s2)c(C)c1 | ≥ 40
O=C(Nc1ccc(C(=O)Nc2ccc(-n3cncn3)cc2)s1)c1ccccc1 | ≤ 1
CC(C)CNC(=O)c1ccc(C(=O)Nc2ccc(-n3cncn3)cc2)s1 | ≥ 40
CC(C)[C@@H](CO)NC(=O)c1ccc(C(=O)Nc2ccc(-n3cncn3)cc2)s1 | ≥ 40
COc1cccc(C2CCN(C(=O)c3ccc(C(=O)Nc4ccc(-n5cncn5)cc4)s3)C2)c1 (stereo not given) | ≥ 40
O=C(Nc1ccc(-n2cncn2)c(F)c1)c1ccc(C(=O)N2CCOCC2)o1 | ≥ 40
COc1ccc(C(=O)Nc2ccc(C(=O)Nc3ccc(-n4cncn4)cc3)o2)c(C)c1 | ≥ 40
Cc1cc(CN2CCOCC2)ccc1NC(=O)c1ccc(C(=O)Nc2ccc(-n3cncn3)cc2)s1 | ≤ 1
C[C@@H](NC(=O)c1ccc(C(=O)Nc2ccc(-n3cncn3)cc2)s1)C1CCCCC1 | ≥ 40
O=C(Nc1ccc(-n2cncn2)cc1)c1ccc(C(=O)Nc2cccc(Cl)c2)s1 | 1 to 40
Cc1cnc(CNC(=O)c2ccc(C(=O)Nc3ccc(-n4cncn4)cc3)s2)cn1 | ≥ 40
Cc1cc(CNC(=O)c2ccc(C(=O)Nc3ccc(-n4cncn4)cc3)s2)no1 | ≥ 40
O=C(NCc1nc2ccccc2[nH]1)c1ccc(C(=O)Nc2ccc(-n3cncn3)cc2)s1 | ≥ 40
COc1ccc(NC(=O)c2ccc(C(=O)Nc3ccc(-c4nc[nH]n4)c(F)c3)o2)c(C)c1 | ≤ 1
CN(C(=O)c1ccc(C(=O)Nc2ccc(-n3cncn3)cc2)s1)c1ccccc1 | ≥ 40
COc1ccc(C(=O)Nc2ccc(C(=O)N3CCC(Oc4cnccn4)CC3)o2)c(C)c1 | ≥ 40
COc1ccc(C(=O)Nc2ccc(C(=O)N3CCC(c4ccncc4)C3)o2)c(C)c1 (stereo not given) | ≥ 40
O=C(NCc1ccncc1)c1ccc(C(=O)Nc2ccc(-n3cncn3)cc2)s1 | ≥ 40
